# How the values were obtained:
# GPR164 (Or51e1, Olfr558) [1] = biological target: T1, GPR164 (Or51e1, Olfr558) (Mus musculus, UniProt Q8VGZ7); test: cAMP EIA in Or51e1-overexpressing HEK293 cells, single concentration […]; assay type: cell-based; parameters: HA-tagged Or51e1 in HEK293 cells, co-transfected with RTP1S or RTP4
# T1 sequence (Q8VGZ7 1-317): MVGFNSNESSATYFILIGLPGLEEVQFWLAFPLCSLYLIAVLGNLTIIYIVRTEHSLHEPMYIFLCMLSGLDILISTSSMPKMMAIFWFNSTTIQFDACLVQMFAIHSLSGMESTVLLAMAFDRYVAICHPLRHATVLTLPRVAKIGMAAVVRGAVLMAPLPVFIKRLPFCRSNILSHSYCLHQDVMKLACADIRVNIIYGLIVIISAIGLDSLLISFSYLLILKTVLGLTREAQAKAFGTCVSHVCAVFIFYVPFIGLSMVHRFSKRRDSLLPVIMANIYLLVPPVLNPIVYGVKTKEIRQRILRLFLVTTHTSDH
# GPR164 (Or51e1, Olfr558) [2] = biological target: T1, GPR164 (Or51e1, Olfr558); test: as above; assay type: cell-based; parameters: HA-tagged Or51e1 in HEK293 cells, active only when co-transfected with RTP1S
SMILES,"intracellular cAMP response (GPR164 (Or51e1, Olfr558) [1])","cAMP EIA in Or51e1-overexpressing HEK293 cells, single concentration 1 mM (GPR164 (Or51e1, Olfr558) [2])"
"CCCC(=O)O [C4, butyrate]",intracellular cAMP levels were upregulated by the treatment with butyrate or valerate (Fig. 1B),
"CCCCC(=O)O [C5, valerate]",only SCFAs (butyrate and valerate) activated GPR164 in cells expressing RTP4 (Fig. 1B),
"CCCCCCCCCC(=O)O [C10, decanoate]",,GPR164 was activated by the stimulation with butyrate or decanoate when cells were co-transfected with both Or51e1 and RTP1S

# Reference: PMC12678807, “The free fatty acid receptor GPR164 maintains intestinal homeostasis and barrier function” (EMBO Reports, 2025)
